Laboratory results taken from ChEMBL document CHEMBL4004882, “Synthesis of novel trifluoromethyl-substituted spiro-[chromeno[4,3-d]pyrimidine-5,1'-cycloalkanes], and evaluation of their analgesic effects in a mouse pain model” (Bioorg Med Chem Lett, 2017).
Calls of active or inactive are those of the source. The rule behind the calls is not given here.

Tests used:
Mus musculus [1] = assay: Antinociceptive activity in Swiss mouse assessed as inhibition of capsaicin-induced nociception at 100 mg/kg, po administered 1 hr followed by capsaicin challenge measured for 5 mins relative to vehicle-treated control; type: functional
Mus musculus [2] = assay: Antinociceptive activity in Swiss mouse assessed as inhibition of CFA-induced mechanical allodynia at 100 mg/kg, po after 2 hrs relative to vehicle-treated control; type: functional
Mus musculus [3] = assay: Antinociceptive activity in po dosed Swiss mouse assessed as inhibition of CFA-induced mechanical allodynia after 2 hrs; type: functional; settings: read-out: ID50 (the source's name)
Mus musculus [4] = assay: Antinociceptive activity in Swiss mouse assessed as inhibition of CFA-induced mechanical allodynia at 300 mg/kg, po after 2 hrs relative to vehicle-treated control; type: functional
Mus musculus [5] = assay: Antinociceptive activity in Swiss mouse assessed as inhibition of CFA-induced mechanical allodynia at 100 mg/kg, po measured over 4 hrs; type: functional, organism-based
Mus musculus [6] = assay: Toxicity in Swiss mouse assessed as effect on spontaneous locomotor activity at 100 mg/kg, po after 1 hr by open field test; type: organism-based; settings: in vivo
Mus musculus [7] = assay: Toxicity in Swiss mouse assessed as effect on forced locomotor activity at 100 mg/kg, po after 1 hr by rotarod test; type: organism-based; settings: in vivo
Mus musculus [8] = assay: Antinociceptive activity in Swiss mouse assessed as inhibition of CFA-induced mechanical allodynia at 100 mg/kg, po measured over 6 hrs; type: functional, organism-based

FC(F)(F)c1nc(-c2ccccc2)nc2c1C1(CCCCCC1)Oc1ccccc1-2
inhibition (Mus musculus [1]): Active

FC(F)(F)c1nc(-n2cccc2)nc2c1C1(CCCCCC1)Oc1ccccc1-2
inhibition (Mus musculus [1]): Active

CC(C(=O)O)c1cccc(C(=O)c2ccccc2)c1 (stereo not given) [KETOPROFEN]
inhibition in vivo at 100 mg/kg (Mus musculus [2]): ≤ 65% | ED50 (Mus musculus [3]): 169 mg/kg | Imax (Mus musculus [4]): 75% | inhibition in vivo at 100 mg/kg (Mus musculus [1]; Mus musculus, Swiss, po): 80% | inhibition (Mus musculus [5]): Active

Nc1nc2c(c(C(F)(F)F)n1)C1(CCCC1)Oc1ccccc1-2
inhibition (Mus musculus [1]): Active

FC(F)(F)c1nc(-n2cccc2)nc2c1C1(CCCC1)Oc1ccccc1-2
inhibition (Mus musculus [1]): Active

FC(F)(F)c1nc(-c2ccccc2)nc2c1C1(CCCCC1)Oc1ccccc1-2
inhibition (Mus musculus [1]): Active

Nc1nc2c(c(C(F)(F)F)n1)C1(CCCCCC1)Oc1ccccc1-2
inhibition (Mus musculus [1]): Active

FC(F)(F)c1nc(-n2cccc2)nc2c1C1(CCCCC1)Oc1ccccc1-2
inhibition in vivo at 100 mg/kg (Mus musculus [2]): ≤ 68% | Activity (Mus musculus [6]): Non-Toxic | ED50 (Mus musculus [3]): 422 mg/kg | Activity (Mus musculus [7]): Non-Toxic | inhibition (Mus musculus [8]): Active | Imax (Mus musculus [4]): 66% | Imax (Mus musculus [1]): 83%

FC(F)(F)c1nc(-c2ccccc2)nc2c1C1(CCCC1)Oc1ccccc1-2
inhibition (Mus musculus [1]): Active

Nc1nc2c(c(C(F)(F)F)n1)C1(CCCCC1)Oc1ccccc1-2
inhibition (Mus musculus [1]): Active
